According to US9512175B2, “Macrocyclic inhibitors of flaviviridae viruses” (Gilead Sciences, Inc., priority 2012, dated 2016):
Like-named read-outs stand apart in the source and are kept apart here.

Columns and labels:
[1] = system: HCV replicon (Replicon 1a); experiment: anti-HCV activity in Huh-7 cell line harboring a HCV replicon (Replicon 1a); format: cell-based; details: for inhibition at 1 µM: Hepatitis C virus, Huh-7, 72 h
[2] = target: cyclophilin A (Homo sapiens, UniProt P62937); experiment: Cyclophilin A TR-FRET competitive binding assay; details: IC50 ranges, competition with CsA-Cy5 for His-tagged CypA, two-hour incubation
Experimental: Cyclophilin A TR-FRET Competitive Binding Assay
Inhibitor potency was measured using a competitive binding assay with a time-resolved fluorescence resonance energy transfer (TR-FRET) readout. […] An IC50 value was calculated using a four-parameter logistic fit.

[3] = read-out: Replicon 1a % inhibition at 1 μM, 1 μM, human hepatoma Huh-7 HCV replicon cells, 3 days, luciferase readout
[4] = read-out: Replicon 1a % inhibition at 1 μM

Chain of cyclophilin A (P62937 whole entry, species assumed): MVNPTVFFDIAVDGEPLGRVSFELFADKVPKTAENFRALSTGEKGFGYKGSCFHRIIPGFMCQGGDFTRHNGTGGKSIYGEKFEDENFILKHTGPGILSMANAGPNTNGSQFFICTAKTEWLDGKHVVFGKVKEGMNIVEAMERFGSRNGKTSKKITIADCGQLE

SMILES	inhibition at 1 µM [1, 3]	IC50 ([2]; read-out: TR-FRET)	Replicon 1a % inhibition at 1 μM ([1]; 1 μM, human hepatoma Huh-7 HCV replicon cells, 3 days, luciferase readout)	inhibition at 1 µM [1, 4]	IC50 ([2]; TR-FRET)
CC(C)[C@@H]1NC(=O)C(C)(C)/C=C/c2ccc3ccc(nc3c2)[C@H]2CCCN2C(=O)[C@@H]2CCCN(N2)C(=O)[C@H](C)NC1=O (single isomer, unassigned) [Compound 150]	95%	< 0.1 µM			
CC(C)[C@@H]1NC(=O)C2(/C=C/c3ccc4ccc(nc4c3)[C@@H](C)OC(=O)[C@@H]3CCCN(N3)C(=O)[C@H](C)NC1=O)CC2 [Compound 152]	100%	< 0.1 µM			
CC(C)[C@@H]1NC(=O)C(C)(C)/C=C/c2ccc3ccc(nc3c2)[C@@H](C)OC(=O)[C@@H]2CCCN(N2)C(=O)[C@H](CC(=O)O)NC1=O [Compound 93]	68%	< 0.1 µM			
COCCC1(C)/C=C/c2ccc3ccc(nc3c2)[C@@H](C)OC(=O)[C@@H]2CCCN(N2)C(=O)[C@H](C)NC(=O)[C@H](C(C)C)NC1=O (single isomer, unassigned) [Compound 102]	100%	< 0.1 µM			
C[C@@H]1NC(=O)[C@H](Cc2cccnc2)NC(=O)C(C)(C)/C=C/c2cc3cc(ccc3cn2)[C@@H](C)OC(=O)[C@@H]2CCCN(N2)C1=O [Compound 55]	76%	0.101 to 1 µM			
CC(C)[C@@H]1NC(=O)C2(/C=C/c3ccc4ccc(nc4c3)[C@@H](C)OC(=O)[C@@H]3CCCN(N3)C(=O)[C@H](C)NC1=O)CCN(C(=O)OC(C)(C)C)CC2 [Compound 126]	100%	< 0.1 µM			
CC(C)[C@@H]1NC(=O)[C@H](C)C/C=C/c2cc3cc(ccc3cn2)[C@@H](C)OC(=O)[C@@H]2CCCN(N2)C(=O)[C@H](C)NC1=O [Compound 21]	93%	< 0.1 µM			
CC(C)[C@@H]1NC(=O)C(CO)(CO)/C=C/c2ccc3ccc(nc3c2)[C@@H](C)OC(=O)[C@@H]2CCCN(N2)C(=O)[C@H](C)NC1=O [Compound 76]	63%	< 0.1 µM			
Cc1cc2cc3nc(ccc13)[C@@H](C)OC(=O)C1CCCN(N1)C(=O)[C@@H](C)NC(=O)[C@H](C(C)C)NC(=O)C(C)(C)/C=C/2 (stereo partly shown) [Compound 148]	100%	< 0.1 µM			
COC1CCC=Cc2cccc(c2)C2CCCCN2C(=O)C2CCCN(N2)C(=O)C(C)NC(=O)C(C(C)C)NC(=O)C1C (single isomer, unassigned) [Compound 29]		1 to 10 µM	28%		
CC(C)[C@@H]1NC(=O)C/C=C/c2ccc3ncc(cc3c2)[C@@H](C)OC(=O)[C@@H]2CCCN(N2)C(=O)[C@H](C)NC1=O [Compound 14]	94%	< 0.1 µM			
CC(C)[C@@H]1NC(=O)C2(/C=C/c3ccc4ccc(nc4c3)[C@@H](C)OC(=O)[C@@H]3CCCN(N3)C(=O)[C@H](C)NC1=O)CCNCC2 [Compound 127]	2%	< 0.1 µM			
CC(C)[C@@H]1NC(=O)C(C)(C)/C=C/c2ccc3ccc(nc3c2)[C@@H](C)OC(=O)[C@@H]2CCCN(N2)C(=O)C(CC2CCOCC2)NC1=O (single isomer, unassigned) [Compound 113]	13%	0.101 to 1 µM			
CO[C@@H]1CCc2cc3cc(ccc3cn2)[C@@H](C)NC(=O)[C@@H]2CCCN(N2)C(=O)[C@H](C)NC(=O)[C@H](C(C)C)NC(=O)[C@@H]1C [Compound 6]	86%	< 0.1 µM			
CC(C)[C@@H]1NC(=O)C(C)(C)/C=C/c2ccc3ccc(cc3c2)[C@@H](C)OC(=O)[C@@H]2CCCN(N2)C(=O)[C@H](C)NC1=O [Compound 142]	99%	< 0.1 µM			
CC(C)[C@@H]1NC(=O)[C@]2(/C=C/c3ccc4ccc(nc4c3)[C@@H](C)OC(=O)[C@@H]3CCCN(N3)C(=O)[C@H](C)NC1=O)CC[C@@](C)(O)CC2 [Compound 173]	99%	< 0.1 µM			
CC(C)[C@@H]1NC(=O)C(C)(C)/C=C/c2ccc3c(=O)[nH]c(nc3c2)[C@@H](C)OC(=O)C2CCCN(N2)C(=O)[C@@H](C)NC1=O (stereo partly shown) [Compound 146]	24%	< 0.1 µM			
CC(C)[C@@H]1NC(=O)CCn2cc(cn2)-c2cccc(c2)[C@@H](C)OC(=O)[C@@H]2CCCN(N2)C(=O)[C@H](C)NC1=O [Compound 42]	16%	0.101 to 1 µM			
CC(C)[C@@H]1NC(=O)C/C=C/c2ccc3ncc(nc3c2)[C@@H](C)OC(=O)[C@@H]2CCCN(N2)C(=O)[C@H](C)NC1=O [Compound 7]	94%	< 0.1 µM			
CC(C)[C@@H]1NC(=O)C(C)(C)/C=C/c2ccc3ccc(nc3c2)[C@@H](C)OC(=O)[C@@H]2CCCN(N2)C(=O)[C@H](CC(=O)N2CCCC2)NC1=O [Compound 99]	96%	< 0.1 µM			
COC(=O)N1CCC2(/C=C/c3ccc4ccc(nc4c3)[C@@H](C)OC(=O)[C@@H]3CCCN(N3)C(=O)[C@H](C)NC(=O)[C@H](C(C)C)NC2=O)CC1 [Compound 132]		< 0.1 µM		100%	

SMILES	inhibition at 1 µM [1, 3]	IC50 ([2]; read-out: TR-FRET)	Replicon 1a % inhibition at 1 μM ([1]; 1 μM, human hepatoma Huh-7 HCV replicon cells, 3 days, luciferase readout)	inhibition at 1 µM [1, 4]	IC50 ([2]; TR-FRET)
CC(C)[C@@H]1NC(=O)CCCCCc2cc3cc(ccc3cn2)[C@@H](C)OC(=O)[C@@H]2CCCN(N2)C(=O)[C@H](C)NC1=O [Compound 62]	25%	0.101 to 1 µM			
CC(C)[C@@H]1NC(=O)C(C)(C)/C=C/c2ccc3ccc(nc3c2)[C@@H](C)OC(=O)[C@@H]2CCCN(N2)C(=O)[C@H](CC(=O)OC(C)(C)C)NC1=O [Compound 92]	100%	< 0.1 µM			
CC(C)[C@@H]1NC(=O)C2(/C=C/c3ccc4ccc(nc4c3)[C@@H](C)NC(=O)[C@@H]3CCCN(N3)C(=O)[C@H](C)NC1=O)CCC(F)(F)CC2 [Compound 122]	96%	< 0.1 µM			
CO[C@@H]1/C=C/c2cc3cc(ccc3cn2)[C@@H](C)NC(=O)[C@@H]2CCCN(N2)C(=O)[C@H](C)NC(=O)[C@H](C(C)C)NC(=O)[C@@H]1C [Compound 5]	80%	< 0.1 µM			
CO[C@@H]1/C=C/c2cc3cc(ccc3cn2)[C@@H](C)OC(=O)[C@@]2(C)CCCN(N2)C(=O)[C@H](C)NC(=O)C(C(C)C)NC(=O)[C@@H]1C (stereo partly shown) [Compound 33]	14%	1 to 10 µM			
CC(C)[C@@H]1NC(=O)C(C)(C)/C=C/c2ccc3ccc(nc3c2)[C@@H](C)OC(=O)[C@@H]2CCCN(N2)C(=O)[C@H](CC2CCOCC2)NC1=O (single isomer, unassigned) [Compound 112]	96%	< 0.1 µM			
CC(C)[C@@H]1NC(=O)C2(/C=C/c3ccc4ccc(nc4c3)[C@@H](C)OC(=O)[C@@H]3CCCN(N3)C(=O)[C@H](C)NC1=O)COC2 [Compound 73]	94%	< 0.1 µM			
CC(C)[C@@H]1NC(=O)[C@@](C)(CO)/C=C/c2ccc3ccc(nc3c2)[C@@H](C)OC(=O)[C@@H]2CCCN(N2)C(=O)[C@H](C)NC1=O [Compound 78]				99%	< 0.1 µM
Cc1cc2ccc3cc2nc1[C@@H](C)NC(=O)[C@@H]1CCCN(N1)C(=O)[C@H](C)NC(=O)[C@H](C(C)C)NC(=O)C(C)(C)/C=C/3 [Compound 175]	85%	< 0.1 µM			
CC(C)[C@@H]1NC(=O)C(C)(C)/C=C/c2ccc3ccc(nc3c2)[C@@H](C(F)(F)F)NC(=O)[C@@H]2CCCN(N2)C(=O)[C@H](C)NC1=O [Compound 13]		< 0.1 µM		87%	
CC(C)[C@@H]1NC(=O)C(C)(C(C)(C)O)/C=C/c2ccc3ccc(nc3c2)[C@@H](C)OC(=O)[C@@H]2CCCN(N2)C(=O)[C@H](C)NC1=O (stereo partly shown) [Compound 101]	99%	< 0.1 µM			
CC(C)[C@@H]1NC(=O)C(C)(C)/C=C/c2ccc3ccc(nc3c2)[C@@H](C)NC(=O)[C@@H]2CCCN(N2)C(=O)[C@H](Cc2ccccc2)NC1=O [Compound 120]	91%	< 0.1 µM			
CC(C)[C@@H]1NC(=O)[C@@](C)(CO)/C=C/c2ccc3ccc(cc3c2)[C@@H](C)OC(=O)[C@@H]2CCCN(N2)C(=O)[C@H](C)NC1=O [Compound 104]	98%	< 0.1 µM			
CC(C)[C@@H]1NC(=O)C2(/C=C/c3ccc4ccc(nc4c3)[C@@H](C)OC(=O)[C@@H]3CCCN(N3)C(=O)[C@H](C)NC1=O)CCN(CC(F)(F)F)CC2 [Compound 136]	100%	< 0.1 µM			
C[C@@H]1NC(=O)[C@H](CCn2cc(CO)nn2)NC(=O)C(C)(C)/C=C/c2cc3cc(ccc3cn2)[C@@H](C)OC(=O)[C@@H]2CCCN(N2)C1=O [Compound 72]		0.101 to 1 µM		0%	
CC(C)[C@@H]1NC(=O)[C@H](C)[C@H](O)CC/C=C/c2cccc(c2)[C@@H](C)NC(=O)[C@@H]2CCCN(N2)C(=O)[C@H](C)NC1=O [Compound 1, (E)-(2R,5S,11S,14S,17R,18R)-18-Hydroxy-14-isopropyl-2,11,17-trimethyl-3,9,12,15,28-pentaaza-tricyclo[21.3.1.1*5,9*]octacosa-1(26),21,23(27),24-tetraene-4,10,13,16-tetraone]	32%	< 0.1 µM			
CC(C)[C@@H]1NC(=O)C/C=C/c2cnc3ccc(cc3c2)[C@@H](C)OC(=O)[C@@H]2CCCN(N2)C(=O)[C@H](C)NC1=O [Compound 15]	99%	< 0.1 µM			
CC(C)[C@@H]1NC(=O)[C@H](CC2CC2)/C=C/c2ccc3ccc(nc3c2)[C@@H](C)OC(=O)[C@@H]2CCCN(N2)C(=O)[C@H](C)NC1=O [Compound 81]				100%	< 0.1 µM
CC(C)[C@@H]1NC(=O)[C@](C)(COCC[Si](C)(C)C)/C=C/c2ccc3ccc(nc3c2)[C@@H](C)OC(=O)[C@@H]2CCCN(N2)C(=O)[C@H](C)NC1=O [Compound 79]				96%	< 0.1 µM
CC(C)[C@@H]1NC(=O)CCc2ccc(nc2)-c2cccc(c2)[C@@H](C)OC(=O)[C@@H]2CCCN(N2)C(=O)[C@H](C)NC1=O [Compound 45]	80%	< 0.1 µM			
